Laboratory results as given in ChEMBL document CHEMBL1255530, “3D-QSAR CoMFA study of benzoxazepine derivatives as mGluR5 positive allosteric modulators” (Bioorg Med Chem Lett, 2010).
pEC50: −log10 of the molar value.

biological target: Metabotropic glutamate receptor 5 (Rattus norvegicus, UniProt P31424); assay: Positive allosteric modulation of rat mGluR5 expressed in HEK293 cells
Sequence (P31424 whole entry): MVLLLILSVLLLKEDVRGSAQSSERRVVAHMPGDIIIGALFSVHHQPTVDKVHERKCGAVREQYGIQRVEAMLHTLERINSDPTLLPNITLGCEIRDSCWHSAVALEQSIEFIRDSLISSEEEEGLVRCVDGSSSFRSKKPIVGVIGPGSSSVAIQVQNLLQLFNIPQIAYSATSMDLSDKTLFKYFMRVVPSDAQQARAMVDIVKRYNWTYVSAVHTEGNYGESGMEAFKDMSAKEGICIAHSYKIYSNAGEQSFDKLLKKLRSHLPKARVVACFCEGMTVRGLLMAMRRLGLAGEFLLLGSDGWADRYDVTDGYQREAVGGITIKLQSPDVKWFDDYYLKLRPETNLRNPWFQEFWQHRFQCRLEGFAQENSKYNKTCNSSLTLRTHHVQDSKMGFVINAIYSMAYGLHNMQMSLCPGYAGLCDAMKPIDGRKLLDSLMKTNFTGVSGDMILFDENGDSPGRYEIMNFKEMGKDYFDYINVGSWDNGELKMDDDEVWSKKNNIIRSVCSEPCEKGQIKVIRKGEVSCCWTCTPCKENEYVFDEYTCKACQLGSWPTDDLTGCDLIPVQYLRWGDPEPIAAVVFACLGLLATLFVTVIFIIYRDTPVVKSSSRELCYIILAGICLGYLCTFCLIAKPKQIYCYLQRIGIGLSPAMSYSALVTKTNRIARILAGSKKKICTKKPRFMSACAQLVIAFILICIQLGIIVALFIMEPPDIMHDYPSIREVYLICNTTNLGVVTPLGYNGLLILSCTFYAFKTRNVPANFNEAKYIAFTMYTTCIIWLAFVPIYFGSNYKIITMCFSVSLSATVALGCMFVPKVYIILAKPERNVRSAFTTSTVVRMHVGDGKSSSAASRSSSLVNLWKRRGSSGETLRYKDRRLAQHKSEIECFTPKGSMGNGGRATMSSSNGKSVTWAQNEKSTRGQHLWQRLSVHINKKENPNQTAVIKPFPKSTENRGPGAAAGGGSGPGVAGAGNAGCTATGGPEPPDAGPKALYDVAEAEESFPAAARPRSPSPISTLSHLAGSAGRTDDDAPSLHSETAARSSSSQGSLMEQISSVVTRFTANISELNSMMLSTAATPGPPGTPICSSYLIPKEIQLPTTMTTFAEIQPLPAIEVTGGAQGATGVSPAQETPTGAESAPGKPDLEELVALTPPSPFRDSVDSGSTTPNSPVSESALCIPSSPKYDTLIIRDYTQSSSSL

How did the pEC50 turn out when `CCSc1nnc2c(n1)O[C@@H](c1ccc(Cl)cc1)N(C(C)=O)c1ccccc1-2` was run?
Its pEC50 is 6.17.

How did the pEC50 turn out when `CCSc1nnc2c(n1)O[C@@H](c1ccc(OC(C)=O)cc1)N(C(C)=O)c1ccccc1-2` was run?
Its pEC50 is 6.09.

With `CCC(=O)Oc1ccc([C@@H]2Oc3nc(SC)nnc3-c3ccccc3N2C(=O)CC)cc1` as the compound, how does the pEC50 read?
Its pEC50 is 5.44.

`CCSc1nnc2c(n1)O[C@@H](c1cccc(C)c1OC(C)=O)N(C(C)=O)c1ccccc1-2` was tested. Which pEC50 did it give?
The pEC50 was 5.55.

How did the pEC50 turn out when `CCSc1nnc2c(n1)O[C@@H](c1ccc(N(C)C)cc1)N(C(C)=O)c1ccccc1-2` was run?
The pEC50 was 5.37.

With `C=CCSc1nnc2c(n1)O[C@@H](c1ccccn1)N(C(=O)CC)c1ccccc1-2` as the compound, how does the pEC50 read?
The pEC50 was 6.36.

With `CCSc1nnc2c(n1)O[C@@H](/C=C/c1ccco1)N(C(C)=O)c1ccccc1-2` as the compound, how does the pEC50 read?
The pEC50 was 5.93.

`C=CCSc1nnc2c(n1)O[C@@H](c1cccs1)N(C(=O)CC)c1ccccc1-2` was tested. Which pEC50 did it give?
The pEC50 was 7.24.

With `CCSc1nnc2c(n1)O[C@@H](c1cc(Br)ccc1OC)N(C(C)=O)c1ccccc1-2` as the compound, how does the pEC50 read?
Its pEC50 is 6.92.

How did the pEC50 turn out when `CCCC(=O)N1c2ccccc2-c2nnc(SCC)nc2O[C@H]1c1cccs1` was run?
The pEC50 was 6.58.

`CCOc1cc([C@@H]2Oc3nc(SC)nnc3-c3ccccc3N2C(=O)CC)ccc1OC(=O)CC` was tested. Which pEC50 did it give?
Its pEC50 is 5.55.

`CCOC(=O)COc1ccccc1[C@@H]1Oc2nc(SC)nnc2-c2ccccc2N1C(=O)CC` was tested. Which pEC50 did it give?
Its pEC50 is 5.66.

`CCCCOc1ccccc1[C@@H]1Oc2nc(SC)nnc2-c2ccccc2N1C(=O)CC` was tested. Which pEC50 did it give?
The pEC50 was 5.43.

`CSc1nnc2c(n1)O[C@@H](c1ccc(Cl)cc1)N(C(C)=O)c1ccccc1-2` was tested. Which pEC50 did it give?
Its pEC50 is 5.68.

How did the pEC50 turn out when `CCSc1nnc2c(n1)O[C@@H](c1cccn1C)N(C(=O)CC)c1ccccc1-2` was run?
Its pEC50 is 5.90.

`CCSc1nnc2c(n1)O[C@@H](c1ccc(OC)c(Br)c1)N(C(C)=O)c1ccccc1-2` was tested. Which pEC50 did it give?
Its pEC50 is 6.02.

How did the pEC50 turn out when `CCSc1nnc2c(n1)O[C@@H](c1ccc(OC)cc1OC)N(C(C)=O)c1ccccc1-2` was run?
The pEC50 was 6.31.

`CCSc1nnc2c(n1)O[C@@H](c1ccc(OCc3ccccc3)cc1)N(C(C)=O)c1ccccc1-2` was tested. Which pEC50 did it give?
The pEC50 was 5.22.

With `CCOc1cc([C@@H]2Oc3nc(SCC)nnc3-c3ccccc3N2C(C)=O)ccc1OC(C)=O` as the compound, how does the pEC50 read?
The pEC50 was 5.71.

How did the pEC50 turn out when `CCSc1nnc2c(n1)O[C@@H](c1cc(Cl)ccc1OC(C)=O)N(C(C)=O)c1ccccc1-2` was run?
Its pEC50 is 5.80.
